Results reported in patent US7252926B2, “Planographic printing plate material and preparing process of planographic printing plate” (Konica Minolta Medical & Graphic, Inc., priority 2003, dated 2007).

Assay: Solubility of the dye in methyl ethyl ketone (MEK)
Type: physicochemical
Conditions: dye dissolved in methyl ethyl ketone; wt % at 25° C.
Experimental: An anionic dye of the present invention dissolving in an amount of not less than 1% indicates an anionic dye dissolving in methyl ethyl ketone not less than 1 wt % at 25° C. More preferably, an anionic dye dissolving in methyl ethyl ketone in an amount of not less than 1.5 wt %. And still more preferably, it is not less than 2 wt %, and specifically preferably, it is not less than 2.5 wt %.

| SMILES | MEK Solubility (%) |
| --- | --- |
| CCCCN1C(=O)C(=C2C=C(C)c3ccc(N(CC)CC)cc3O2)C(=O)N(CCCC)C1=S [Dye1 (nonion)] | 2% |
| Cn1c(-c2ccccc2)c(/C=C/C2=[N+](C)c3cc(Cl)ccc3C2(C)C)c2ccccc21 [Dye2 (cation)] | 1% |
